From paper PMC8329432 (Journal of Ethnopharmacology, 2021)

Target: GPR35 (Homo sapiens, UniProt Q9HC97)
Experiment: label-free dynamic mass redistribution
Assay type: cell-based
Conditions: read-out: EC50/IC50; agonist mode; HBSS, 10 mM HEPES, pH 7.4

GPR35, sequence (Q9HC97 whole entry): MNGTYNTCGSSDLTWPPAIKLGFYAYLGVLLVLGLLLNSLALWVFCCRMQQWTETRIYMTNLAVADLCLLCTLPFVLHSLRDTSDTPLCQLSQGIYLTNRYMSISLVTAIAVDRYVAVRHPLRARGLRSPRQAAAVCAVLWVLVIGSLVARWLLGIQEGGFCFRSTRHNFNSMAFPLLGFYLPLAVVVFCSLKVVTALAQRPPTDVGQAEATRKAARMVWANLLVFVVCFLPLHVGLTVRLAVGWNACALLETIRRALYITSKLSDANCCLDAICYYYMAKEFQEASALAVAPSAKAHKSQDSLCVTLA

Row | Structure (SMILES) | EC50 [µM]
1 | COc1c(O)cc2occ(-c3ccc(O)cc3)c(=O)c2c1O [LCDD-41, tectorigenin] | > 200
2 | O=C1c2c(O)cc(O)cc2O[C@H](c2ccc(O)c(O)c2)[C@H]1O [LCDD-68, taxifolin] | > 200
3 | O=C(/C=C/c1ccc(O)c(O)c1)O[C@@H]1[C@H](O)C[C@@](O)(C(=O)O)C[C@H]1OC(=O)/C=C/c1ccc(O)c(O)c1 [LCDD-79, isochlorogenic acid C] | 114
4 | O=C(/C=C/c1ccc(O)cc1)c1ccc(O)cc1O [LCDD-88, isoliquiritigenin] | > 200
5 | COc1c(/C=C/C(=O)c2ccc(O)cc2)ccc(O)c1O [LCDD-93, licochalcone B] | 25.1
6 | O=C(O)[C@H]1O[C@@H](Oc2cc3oc(-c4ccccc4)cc(=O)c3c(O)c2O)[C@H](O)[C@@H](O)[C@@H]1O [LCDD-117, baicalin] | > 200
